The record followed here is patent US20240247318A1, “METHODS FOR DETECTING INACTIVATION OF THE HOMOLOGOUS REC[…] (BRCA1/2) IN HUMAN TUMORS” (Institute Curie, priority 2012, published 2024).

For the assay, the system named is triple-negative breast tumors. Nature of the assay: clinical trial of Cisplatin treatment of patients with triple-negative breast tumors (GSE28330). Type of assay: in vivo, human. As to conditions: number of patients. Here is the method:
Two publically available data sets from clinical trial of Cisplatin treatment of patients with triple-negative breast tumors [GSE28330 GEO database][59] were processed and the number of LST_10 Mb was calculated for each tumor with good quality of measured profile. Genomic profiles were measured by two types of chip: Affymetrix Oncoscan 70K (Dataset 2) and Oncoscan 300K (Dataset 1). Information about mutational status of BRCA1/2 was available for some tumors. Response to treatment was measured by Miller-Payne score, where 4 and 5 were considered as “positive response”, while scores<4 were considered as “no response” Case by case and summary results are presented in Table 2 and Tables 3-5 (statistical comparisons were performed by the Fisher exact test).

For `N.N.[Cl][Pt][Cl]` [Cisplatin, cisplatin], the “Non Responders” value by setting is: (BRCA1/2 inactivated tumors) 8; (LST_high tumors (LST_10 Mb)) 15; (LST_low tumors (LST_10 Mb)) 20; (NON BRCA1/2 or NA tumors) 27. In addition, the Responders runs as follows: (BRCA1/2 inactivated tumors) 9; (LST_high tumors (LST_10 Mb)) 18; (LST_low tumors (LST_10 Mb)) 1; (NON BRCA1/2 or NA tumors) 10.
